Data from patent US20080038374A1, “New Use” (Lipopeptide AB, priority 2004, published 2008).
Where “and” joins values, the source holds several entries; their conditions need not be identical. Equal values may be shown once.

How the values were obtained:
[1] = system: dermatitis; conditions: topical, 0.03-1.0 μg/g of composition; type of dermatitis not stated; cited from earlier work
[2] = system: hCAP18 promoter; assay: Stimulation of the hCAP18 promoter at different concentrations (FIG. 4); assay type: cell-based, human; conditions: tested at 1, 10, 100 and 1000 nM
Procedure: To assess whether physiological levels were sufficient to induce the stimulation of the hCAP18 promoter, the study was performed at the different concentrations 1, 10, 100 and 1000 nM of 1,25-(OH)2-D3 and 25-OH-D3 (FIG. 4). […] The physiologic serum concentration of 25-OH-vitamin D3 is between 20 nM and 125 nM, whereas the 1,25-(OH)2-D3 is present in pM concentration. A dosage form of a vitamin D compound for topical administration includes for instance about 1-100, preferably 5-50 μg vitamin D compound per gram composition.

[3] = system: hCAP18; assay: Expression of hCAP18 mRNA in human primary keratinocytes by Real-Time PCR; assay type: cell-based
Procedure: Human neonatal epidermal keratinocytes were obtained from Cascade Biologics, Inc. (Lot # 1C1145; Port-land, OR) and cultured in EpiLife serum-free keratinocyte growth medium (Cascade Biologics, Inc.) containing growth supplements and a calcium concentration of 0.06 mM. Cells at passage 3 were allowed to grow for three days to approximately 60% confluence. For calcium switch experiments, 1.5 mM CaCl2 (added from a 1 M stock solution) was added to the plates and after 48 hours the cells were regarded as differentiated (observed as an induction of mRNA expression of the two keratinocyte markers transglutaminase and cellular retinoic acid-binding protein II). The compounds assayed were 25-hydroxy-cholecalciferol (25-OH-D3), 1,25-dihydroxycholecalciferol (1,25-(OH)2-D3), and calcipotriol/MC 903 (Leo Pharmaceutical, Denmark). Their effect on hCAP18 expression was monitored by quantitivate PCR analysis.
Keratinocytes were grown as above and treated with said compounds for 4 h. RNA was extracted with the RNeasy kit (Qiagen) and reverse transcribed with a first strand synthesis kit (Amersham-Pharmacia). RNA was quantified by Real-Time PCR on an ABI Prism 7700 (Applied Biosystems) using 5 ng of cDNA according to standard protocols. The samples were evaluated in triplicates. Sequences were 5′-[…]-3′ and 5′-[…]-3′ for the primers, and 5′-[…]-3′ for the fluorigenic probe. The samples were normalized by quantification of 18S-RNA (Assay on Demand, Applied Biosystems).
To assess the specificity of the vitamin D regulation on the hCAP18 gene, the vitamin D3 precursor 7-dehydrocholesterol (7-DHC) was assayed at a concentration of 1 μM as in Example 1. 7-DHC had no effect on hCAP18 expression. […] Assays were performed and measured as above. The effect of 1,25-(OH)2-D3 is shown for comparison.

[4] = system: angiogenesis; conditions: cited from earlier work
[5] = system: hCAP18; assay: hCAP18/LL-37 expression in skin of healthy volunteers after topical application; assay type: in vivo, human; conditions: 0.002% solution topical, 4 days, three healthy volunteers
Procedure: To assay whether 1,25-(OH)2-D3 stimulated hCAP18 expression in vivo, we applied 1,25-(OH)2D3 to the skin of three healthy individuals.
A stock solution of 4 mM 1,25-dihydroxyvitamin D3 in isopropanol was diluted in ethanol:propylene glycol [70:30] to a final vitamin D concentration of 0.002%. The vehicle containing ethanol 96% and propylene glycol [70:30] with 0.5 mg/ml BHT (butylated hydroxy toluene) served as control. In a room with dim light, the vitamin D and the control were locally applied to the skin (the right and left upper arm respectively) of three healthy volunteers. The test area of 2×2.5 cm on each arm was cleaned with saline solution (NaCl 0.9) before application. Evaporation time for the solutions of vitamin D and the vehicle varied between 8 and 15 minutes. The tested area was then covered with plastic film and band-aid (Gladpack, Melolin and Mefix). After 4 days the band-aid and the plastic film was removed and the test area was rapidly cleaned with 40% ethanol. Punch biopsies (4 mm) were obtained from the test area (after infiltration anesthesia with 2-3 ml Xylocaln with epinefrin) and were frozen instantly. […] Protein concentrations were measured by Protein Assay Kit (Bio-Rad Laboratories, Hercules Calif.) based on the Bradford method (Bradford, 1976) and samples were diluted to a final protein concentration of 1 mg per ml. […]

[6] = system: hCAP18; assay: hCAP18 mRNA in skin of atopic dermatitis patients, Real-Time PCR; assay type: in vivo, human; set-up: hCAP18 mRNA, Non-lesional skin, Treated / hCAP18 mRNA, Lesional skin, Treated: unit not given here; conditions: 0.002% topical, 4 days, one patient per row
Procedure: To assay whether 1,25-(OH)2-D3 stimulated hCAP18 expression in atopic dermatitis, we applied 1,25-(OH)2-D3 on the skin of four individuals, two females and two men, with active atopic dermatitis. The patients had suffered from the eczema for 11-30 years. The diagnosis was made by a dermatologist. A stock solution of 4 mM 1,25-(OH)2-D3 in isopropanol was diluted in ethanol:propylene glycol (70:30) to a final concentration of 0.002%. To prevent deactivation of 1,25-(OH)2-D3, the procedure was performed in a room with dim light. The 1,25-(OH)2-D3 were locally applied on lesional and non-lesional skin area of patients. The skin surface was cleaned with saline solution (NaCl 0.9) before application. The treated skin area was measured to 2×2.25 cm. Evaporation time for the solutions of 1,25-(OH)2-D3 varied between 8 and 15 minutes. The skin area was then covered with plastic film and band-aid (Quickpack: Haushalt und Hygiene GmbH, Renningen, Germany; Melolin: Smith and Nephew, Hull, UK; Mefix: Molnlycke A B, Gothenburg, Sweden). After 4 days the band-aid and the plastic film were removed and the skin areas were rapidly cleaned with 40% ethanol. Punch biopsies (4 mm) were obtained from the treated skin areas (after infiltration anesthesia with 2-3 ml Xylocaln with epinephrin) and frozen instantly. On the first day, control biopsies were also obtained from non-treated lesional and non-lesional skin and the tissues were snap-frozen as described. RNA was extracted and hCAP18 mRNA expression determined by Real-Time PCR as described above in Example 1.

[7] = system: hCAP18; conditions: keratinocytes and leukocytes in vitro; cited from earlier work
[8] = system: acute wounds; conditions: Wistar rats, intraperitonial; cited from earlier work

C=C1/C(=C\C=C2/CCC[C@]3(C)[C@@H]([C@H](C)CCCC(C)C)CC[C@@H]23)C[C@@H](O)C[C@@H]1O [1α-OH-cholecalciferol, 1-alpha-hydroxycholecalciferol]
effect on dermatitis [1]: marked effect

C=C1CC[C@H](O)C/C1=C/C=C1\CCC[C@]2(C)[C@@H]([C@H](C)/C=C/[C@H](C)C(C)C)CC[C@@H]12 [ergocalciferol]
effect on dermatitis [1]: no effect

C=C1CC[C@H](O)C/C1=C/C=C1\CCC[C@]2(C)[C@@H]([C@H](C)CCCC(C)(C)O)CC[C@@H]12 [25-OH-D3, 25-hydroxy-cholecalciferol]
level down to which a substantial portion of stimulation remained [2]: 10 nM

CC(C)CCC[C@@H](C)[C@H]1CC[C@H]2C3=CC=C4C[C@@H](O)CC[C@]4(C)[C@H]3CC[C@]12C [7-DHC, 7-dehydrocholesterol]
effect on hCAP18 expression ([3]; 1 μM, as in Example 1): no effect

LL-37/hCAP18: endogenous 37 amino acid antimicrobial peptide released by proteolytic cleavage of hCAP18 (LLGDFFRKSKEKIGKEFKRIVQRIKDFLRNLVPRTES; Antibacterial peptide LL-37; UniProt P49913 134-170, looked up)
angiogenesis [4]: induces functionally important angiogenesis

C=C1/C(=C\C=C2/CCC[C@]3(C)[C@@H]([C@H](C)CCCC(C)(C)O)CC[C@@H]23)C[C@@H](O)C[C@@H]1O [1,25-(OH)2-D3, 1,25-dihydroxy-cholecalciferol]
expression of hCAP18 and production of LL-37 in human skin in vivo [5]: Up-Regulates
Increase (treated/untreated), Lesional skin ([6]; lesional skin): 5638% and 79756% and 977% and 220%
hCAP18 mRNA, Lesional skin, Treated ([6]; lesional skin): 1093 and 539 and 64 and 29
Increase (treated/untreated), Non-lesional skin ([6]; non-lesional skin): 13104% and 520% and 841% and 459%
hCAP18 mRNA, Non-lesional skin, Treated ([6]; non-lesional skin): 739.4 and 24.8 and 24.2 and 8.1
effect on dermatitis [1]: marked effect
expression of hCAP18 [7]: directly induces
level down to which a substantial portion of stimulation remained [2]: 10 nM

C=C1/C(=C\C=C2/CCC[C@]3(C)[C@@H]([C@H](C)/C=C/[C@H](C)C(C)(C)O)CC[C@@H]23)C[C@@H](O)C[C@@H]1O [1,25-(OH)2-D2, 1,25-dihydroxyergocalciferol]
activity on hCAP18 expression compared with 1,25-(OH)2-D3 ([3]; concentration not given): activity comparable to 1,25-(OH)-D3

[Ca+2].[Cl-].[Cl-] [calcium, CaCl2]
increase of hCAP18 expression by induction of differentiation ([3]; 1.5 mM CaCl2, 48 hours, keratinocytes): about 1.5 fold

C=C1CC[C@H](O)C/C1=C/C=C1\CCC[C@]2(C)[C@@H]([C@H](C)CC[C@@H](O)C(C)(C)O)CC[C@@H]12 [24,25-dihydroxycholecalciferol]
effect on dermatitis [1]: no effect

C=C1CC[C@H](O)C/C1=C/C=C1\CCC[C@]2(C)[C@@H]([C@H](C)CCCC(C)C)CC[C@@H]12 [cholecalciferol]
re-epithelization of acute wounds [8]: accelerates
wound breaking strength [8]: increases
effect on dermatitis [1]: no effect
